The text below walks through data of patent publication US7465469B2, “Microbiocidal formulation comprising essentials oils or their derivatives” (State of Israel, Ministry of Agriculture & Rural …, priority 2001, dated 2008).

For test [1], the system named is non-inoculated Washington oranges. Nature of the test: Decay percentage of non-inoculated Washington oranges during storage. It is filed as in vivo, Washington navel oranges. Here is the method: Non-inoculated Washington navel oranges were divided into […] groups which were treated as follows: (a) no treatment; (b) dipped in 50% Ethanol; (c) dipped in 0.2% Citral in 0.02% L-77 Emulsifier (aqueous emulsion); (d) dipped in 0.2% Citral in 50% Ethanol; and (e) dipped in a 0.2% aqueous Imazalil solution.
Oranges were then stored for four months at 15° C. in 50-75% relative humidity and the percentage of rotten fruit in each group was measured at different time periods after storage.

A further test relates to kumquat fruit. Nature of the test: Decay of uninoculated kumquat fruit after storage and shelf life simulation. It counts as in vivo. Particulars: 11 days at 10° C. and shelf life at 20° C. for 6 days; limonene 5000 μL L^−1 exposed to sunlight for 3 hours in 25% ethanol + 5000 μL L^−1 TWEEN 20. Here is the method:
Exposure to sunlight or irradiation of the dichloromethane or hexane extract of lemon flavedo should be conducted for 3 to 6 hours. The efficiency of the extract hydroperoxide formulation as a biocidal composition grows with longer periods of exposure of the fruit to the hydroperoxide solution. […] The effect of exposure of limonene to 3 hours of sunlight and its efficiency as preventing decay compared to no treatment (dipping in water) or treatment with an ethanol solution (25%) are summarized in Table 4 in a commercial like experiment with uninoculated fruit.

In test [2] the test system is Penicillium digitatum. Nature of the test: Decay of Penicillium-inoculated grapefruit after 2-minute dip. It is filed as in vivo, Penicillium digitatum on grapefruit. The conditions noted are these: 25% Ethanol dip; three weeks after inoculation. The text has this:
Unblemished grapefruit were harvested from the orchard and on the same day sorted again in the laboratory to eliminate injured fruit. The grapefruit were washed with tap water and air-dried. Each fruit was then inoculated by piercing its flavedo tissue 1.5 mm deep with a tool incorporating three needles at three different sites. Prior to each piercing, the tool was immersed in a spore suspension of Penicillium digitatum (10^6 spores/ml).

Test [3] relates to Penicillium digitatum. Nature of the test: Decay of lemons inoculated with Penicillium 10^4 spores/ml and dipped. It counts as in vivo, Penicillium digitatum on lemons. The conditions noted are these: inoculated lemons dipped a day after inoculation, kept 6 days at 20° C.
Experimental: Lemon fruit flavedo (exocarp) was taken and extracted overnight in dichloromethane, then exposed to sunlight for about 18 hours until the color of the dichloromethane extract turned brown. The flavedo was blended and filtered through a layer of Whatman paper. The extracted solution was evaporated to remove the dichloromethane and the dense liquor was further separated by chromatography with a silica 60 column using dichloromethane as a carrier. Two fractions of dichloromethane, one green and the other colorless, were obtained after chromatography. The crude active extract was isolated by evaporation of the green dichloromethane fraction. […] Effect of the compounds on pathogen development on the fruit was checked daily during storage.
The antifungal activity of the products prepared in the two different routes was checked in the same method. […] Decay was evaluated at specific intervals during a period of 26 days.
Lemons inoculated with Penicillium (10^4 spores/ml) were dipped in an aqueous solution comprising citral, a detergent (Tween 20), other essential oil components as well as a dichloromethane crude extract of lemon flavedo exposed to sunlight. Decay was evaluated at specific intervals during a period of 20 days.
Pure limonene was exposed to sunlight for three hours. […]

As for `CCO` [Ethanol 25%, Ethanol], the “% of rotten fruit” value is on record as 0% in test [1] (0.5 months of storage at 15° C.); 4% in test [1] (1 month of storage at 15° C.); 14% in test [1] (2 months of storage at 15° C.); 20% in test [1] (3 months of storage at 15° C.); 23% in test [1] (4 months of storage at 15° C.). Moreover, in the test with kumquat fruit, the “Decay of kumquat fruit, End of storage” value was 7.9 ab. Also, the fruit rotten entry in the test on Penicillium digitatum [2] is listed as “more than 50%”. Also, the “% Decay” value in the test on Penicillium digitatum [3] amounted to 30%.
